Experimental data taken from US6350729B1, “Inhibition of nitric oxide-mediated hypotension and septic shock with iron-containing hemoprotein” (Board of Regents, The University of Texas System, priority 1992, dated 2002).
Like-named read-outs stand apart in the source and are kept apart here.

Tests used:
blood pressure [1] = details: guinea pigs; cited from earlier work
blood pressure [2] = details: rabbits; cited from earlier work
[3] = system: endotoxin-induced hypotension; test: Endotoxin-induced hypotension in anesthetized dog, mean arterial blood pressure; type: in vivo
Experimental: Experiments were carried out on conditioned mongrel dogs weighing 23-28 kg. Animal care was in accordance with the recommendations of the American Association for Accreditation of Laboratory Animal Care and met all standards prescribed by the Guide for the Care and Use of Laboratory Animals (Committee on Care and Use of Laboratory Animals (1978) Guide for the Care and Use of Laboratory Animals (Natl. Inst. Health, Bethesda, Md.) DHEW Publ. No. (NIH) 78-83.
The dog was fasted overnight before the day of the experiment and was anesthetized with pentobarbital (25 mg/kg, i.v.), orotracheally intubated and ventilated with a Harvard pump at a nominal rate of 12 breaths per minute and a tidal volume of 15 ml/kg. The dog was instrumented with a cordis for the introduction of a Swan-ganz catheter for measurement of central venous and pulmonary arterial pressures as well as an arterial line for continuous blood pressure monitoring via a computer driven analog to digital processor.
After the blood pressure and heart rate was stabilized, endotoxin was administered to the dog as a bolus injection (50 μg/kg, i.v. in 10 ml DPBS. After the onset of hypotension, a rapid infusion of 50 ml hemoglobin (5.0 g commercially available bovine hemoglobin/100 ml) over 20 seconds was administered by a central venous catheter. Cardiovascular changes were monitored for an additional 12 hrs. after hemoglobin administration.
A tracing depicting endotoxin-induced hypotension, its inhibition by hemoglobin, and subsequent administration of bovine serum albumin (5 grams) is shown in FIG. 1. Mean arterial blood pressure declined from 160 mm Hg to 70 mm Hg two hours after endotoxin administration. The hemoglobin (HgB) was subsequently administered as an intravenous bolus. […] This effect lasted approximately 45 minutes before the blood pressure decline resumed. […] On repetition of this experiment, substantially the same results were obtained.

rabbit aortic rings = details: cited from earlier work
[4] = Kinetic 96-well microplate assay, capture of NO by Fe2+-myoglobin; type: biochemical; details: 5 μM Mb, endothelial cell cytosol, 500 μM L-arginine, 500 μM NADPH, 80 mM TRIS pH 7.6, 25° C.
Experimental: Nitric oxide formation by endothelial cell cytosol was measured by a novel kinetic 96-well microplate assay. The assay is based on the capture of NO by Fe^2+-myoglobin (Mb) which is subsequently oxidized to Fe^3+-myoglobin. The process of heme oxidation was continuously measured in a kinetic microplate reader (Molecular Devices, Menlo Park Calif.) as the rate of change in OD405-OD650. Data points were collected from all 96 wells every 16 sec. for 30 minutes at 25° C. with shaking prior to each OD measurement. The slope of the best fit regression line (OD/min) was used to calculate the rate of NO-synthesis. OD/min measurements were converted to pmoles NO/min by dividing by the increase in OD405-OD650 measured upon complete oxidation of 1 pmole of reduced Mb with a 10-fold molar excess of potassium ferricyanide. Under the conditions employed, the efficiency of NO capture by Mb approached 100%; neither doubling nor halving the concentration of Mb influenced the Mb oxidation rate. All samples contained 5-30 μl of endothelial cell cytosol (1-6 mg protein/ml) and final concentrations of 5 μM Mb, 500 μM L-arginine, 500 μM NADPH and 80 Mm TRIS, pH 7.6.
Fe^2+-Myoglobin Preparation: 2 mM myoglobin (from horse skeletal muscle, Sigma) was reduced with a sodium dithionite and immediately applied to a Sephadex G-25 column, followed by elution with 50 Mm TRIS buffer, Ph 7.6. […]

CNC(=N)NCCC[C@H](N)C(=O)O [N^G-methyl-L-arginine]
effect on blood pressure (blood pressure [1]): increase blood pressure | effect on blood pressure (blood pressure [2]): increase blood pressure

bovine serum albumin: bovine serum albumin (5 grams) given as protein comparison after hemoglobin [reference compound]
subsequent blood pressure decline ([3]; endotoxin-induced hypotension, 5 grams given after the hemoglobin effect ended): only slightly influenced

hemoglobin: commercially available bovine hemoglobin, 5.0 g/100 ml, iron hemoprotein given intravenously
endotoxin-induced mean arterial decline (FIG. 1) ([3]; FIG. 1 legend): interrupted | duration of effect before the blood pressure decline resumed ([3]; endotoxin 50 μg/kg i.v., 50 ml of 5.0 g/100 ml bovine hemoglobin over 20 seconds): approximately 45 minutes | blood pressure drop ([3]; endotoxin 50 μg/kg i.v., intravenous bolus after mean arterial pressure fell from 160 to 70 mm Hg at two hours): abrogated | hypotension ([3]; endotoxin 50 μg/kg i.v., intravenous bolus after onset of hypotension): partially reversed | endothelium-dependent relaxation induced by acetylcholine or by A23187 (rabbit aortic rings; 1 μM): reduced | endothelium-dependent relaxation induced by acetylcholine or by A23187 (rabbit aortic rings; 10 μM): abolished

B1: Mb: myoglobin from horse skeletal muscle, Sigma, reduced to Fe2+ form (protein, UniProt P68082 2-154, looked up)
Myoglobin: GLSDGEWQQVLNVWGKVEADIAGHGQEVLIRLFTGHPETLEKFDKFKHLKTEAEMKASEDLKKHGTVVLTALGGILKKKGHHEAELKPLAQSHATKHKIPIKYLEFISDAIIHVLHSKHPGDFGADAQGAMTKALELFRNDIAAKYKELGFQG
efficiency of NO capture [4]: ~100%
